According to patent US12398154B2, “Azaquinazoline pan-KRas inhibitors” (Mirati Therapeutics, Inc., priority 2020, dated 2025):

Experiments:
Assay in all cases: biochemical
[1] = molecular target: KRas G12V (Homo sapiens, UniProt P01116, G12V);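 also: KRas binding measured by TR-FRET displacement at room temperature, IC50 fitted from percent of control values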
Method: (§1) The ability of a compound to bind to KRas was measured using a TR-FRET displacement assay. […] After a 60-minute incubation at room temperature, the reaction was measured using a BMG LABTECH CLARIO star Plus via TR-FRET. […] The POC values were fit to a 4-parameter IC50 equation and the IC50 value reported.

[2] = molecular target: KRas G12D (Homo sapiens, UniProt P01116, G12D);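 also: TR-FRET displacement binding assay on KRas, read after a one-hour incubation at room temperature, IC50 fitted from percent-of-control values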
Sequence of KRas G12D (P01116 1-169 isoform P01116-2 G12D): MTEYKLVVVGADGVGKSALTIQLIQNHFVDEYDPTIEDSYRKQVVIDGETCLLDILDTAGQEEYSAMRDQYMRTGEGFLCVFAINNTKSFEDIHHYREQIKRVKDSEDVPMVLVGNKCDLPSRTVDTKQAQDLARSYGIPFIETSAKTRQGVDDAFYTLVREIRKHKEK
Method: as §1

[3] = molecular target: KRas G12R (Homo sapiens, UniProt P01116, G12R);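 also: TR-FRET displacement assay of compound binding to KRas, read after one hour at room temperature, potency from a four-parameter fit of percent-of-control values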
Sequence of KRas G12R (P01116 1-169 isoform P01116-2 G12R): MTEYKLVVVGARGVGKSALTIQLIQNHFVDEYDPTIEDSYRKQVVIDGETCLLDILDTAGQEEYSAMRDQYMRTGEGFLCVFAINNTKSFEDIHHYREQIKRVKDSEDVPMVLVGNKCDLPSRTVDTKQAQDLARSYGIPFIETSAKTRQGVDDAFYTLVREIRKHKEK
Method: as §1

Sequence of KRas G12V (P01116 1-169 isoform P01116-2 G12V): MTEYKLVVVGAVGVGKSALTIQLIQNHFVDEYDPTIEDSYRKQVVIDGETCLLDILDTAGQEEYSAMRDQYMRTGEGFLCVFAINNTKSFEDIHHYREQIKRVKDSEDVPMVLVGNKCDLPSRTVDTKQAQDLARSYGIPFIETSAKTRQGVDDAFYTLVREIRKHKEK

Row | SMILES | IC50 [1] | IC50 [2] | IC50 [3]
1 | CC1(O)CCCN(c2nc(OCC34CCCN3CCC4)nc3c(F)c(-c4cccc5cccc(Cl)c45)ncc23)C1 (centres unmarked) [Example 1, 1-(7-(8-chloronaphthalen-1-yl)-8-fluoro-2-((hexahydro-1H-pyrrolizin-7a-yl)methoxy)pyrido[4,3-d]pyrimidin-4-yl)-3-methylpiperidin-3-ol] | 0.565 µM | 0.33 µM | 0.866 µM
2 | O=C1CC2(CCCN(c3nc(OCC45CCCN4CCC5)nc4c(F)c(-c5cccc6cccc(Cl)c56)ncc34)C2)CN1 (centres unmarked) [Example 2, 7-(7-(8-chloronaphthalen-1-yl)-8-fluoro-2-((tetrahydro-1H-pyrrolizin-7a(5H)-yl)methoxy)pyrido[4,3-d]pyrimidin-4-yl)-2,7-diazaspiro[4.5]decan-3-one] | 1.01 µM | 0.632 µM | 2.18 µM
3 | O=C1CCN(c2nc(OCC34CCCN3CCC4)nc3c(F)c(-c4cccc5cccc(F)c45)ncc23)CCCN1 [Example 3, 5-(8-fluoro-7-(8-fluoronaphthalen-1-yl)-2-((hexahydro-1H-pyrrolizin-7a-yl)methoxy)pyrido[4,3-d]pyrimidin-4-yl)-1,5-diazocan-2-one] | 11.7 µM | 8.18 µM | 20.4 µM
4 | OC1CCCN(c2nc(OCC34CCCN3CCC4)nc3c(F)c(-c4cccc5cccc(F)c45)ncc23)CC1 (centres unmarked) [Example 8, 1-(8-fluoro-7-(8-fluoronaphthalen-1-yl)-2-((hexahydro-1H-pyrrolizin-7a-yl)methoxy)pyrido[4,3-d]pyrimidin-4-yl)azepan-4-ol] | 2.63 µM | 2.24 µM | 5.41 µM
5 | CCc1c(F)ccc2cc(O)cc(-c3ncc4c(N5CCC[C@](C)(O)C5)nc(OC[C@@H]5C[C@@H](OC(=O)NC)CN5C)nc4c3F)c12 [Example 9, [(3R,5S)-5-[[7-(8-ethyl-7-fluoro-3-hydroxy-1-naphthyl)-8-fluoro-4-[(3S)-3-hydroxy-3-methyl-1-piperidyl]pyrido[4,3-d]pyrimidin-2-yl]oxymethyl]-1-methyl-pyrrolidin-3-yl] N-methylcarbamate] | 0.333 µM | 0.456 µM | 0.354 µM
6 | OC1CCN(c2nc(OCC34CCCN3CCC4)nc3c(F)c(-c4cccc5cccc(F)c45)ncc23)CC1 [Example 11, 1-(8-fluoro-7-(8-fluoronaphthalen-1-yl)-2-((hexahydro-1H-pyrrolizin-7a-yl)methoxy)pyrido[4,3-d]pyrimidin-4-yl)piperidin-4-ol] | 20.8 µM | 15.5 µM | 40.1 µM
7 | CC1(CNc2nc(OCC34CCCN3CCC4)nc3c(F)c(-c4cccc5cccc(F)c45)ncc23)CCC1 [Example 19, 8-fluoro-7-(8-fluoronaphthalen-1-yl)-2-((hexahydro-1H-pyrrolizin-7a-yl)methoxy)-N-((1-methylcyclobutyl)methyl)pyrido[4,3-d]pyrimidin-4-amine] | 64.5 µM | ≥ 100 µM | 84.3 µM
8 | Fc1c(-c2cccc3cccc(F)c23)ncc2c(N3CCCC4CC43)nc(OCC34CCCN3CCC4)nc12 (centres unmarked) [Example 31, 4-(2-azabicyclo[4.1.0]heptan-2-yl)-8-fluoro-7-(8-fluoronaphthalen-1-yl)-2-((hexahydro-1H-pyrrolizin-7a-yl)methoxy)pyrido[4,3-d]pyrimidine] | 13.2 µM |  | 12.8 µM
9 | Fc1c(-c2cccc3cccc(F)c23)ncc2c(N3CCCC4CCCC43)nc(OCC34CCCN3CCC4)nc12 (centres unmarked) [Example 32, 8-fluoro-7-(8-fluoronaphthalen-1-yl)-2-((hexahydro-1H-pyrrolizin-7a-yl)methoxy)-4-(octahydro-1H-cyclopenta[b]pyridin-1-yl)pyrido[4,3-d]pyrimidine] | ≥ 100 µM | 98.6 µM | 86.3 µM
10 | C[C@H]1C[C@@H](O)CN(c2nc(OCC34CCCN3CCC4)nc3c(F)c(-c4cccc5cccc(F)c45)ncc23)C1 [Example 33, (3R,5S)-1-(8-fluoro-7-(8-fluoronaphthalen-1-yl)-2-((hexahydro-1H-pyrrolizin-7a-yl)methoxy)pyrido[4,3-d]pyrimidin-4-yl)-5-methylpiperidin-3-ol] | 6.61 µM | 6.37 µM | 10 µM
11 | Cc1cc2sc(N)nc2c(-c2ncc3c(N4CCCC(C)(O)C4)nc(OC[C@@]45CCCN4C[C@H](F)C5)nc3c2F)c1C (stereo partly drawn) [Example 39, 1-(7-(2-amino-5,6-dimethylbenzo[d]thiazol-4-yl)-8-fluoro-2-(((2R,7aS)-2-fluorotetrahydro-1H-pyrrolizin-7a(5H)-yl)methoxy)pyrido[4,3-d]pyrimidin-4-yl)-3-methylpiperidin-3-ol] | 25.5 µM | 12.5 µM | 19.8 µM
12 | Cc1cc2sc(N)nc2c(-c2ncc3c(N4CCCC(C)(O)C4)nc(OCC45CCCN4CCC5)nc3c2F)c1C (centres unmarked) [Example 40, 1-(7-(2-amino-5,6-dimethylbenzo[d]thiazol-4-yl)-8-fluoro-2-((hexahydro-1H-pyrrolizin-7a-yl)methoxy)pyrido[4,3-d]pyrimidin-4-yl)-3-methylpiperidin-3-ol] | 66.3 µM | 55 µM | 76.9 µM
13 | Fc1c(-c2cccc3cccc(F)c23)ncc2c(N3CCCCCCC3)nc(OCC34CCCN3CCC4)nc12 [Example 41, 4-(azocan-1-yl)-8-fluoro-7-(8-fluoronaphthalen-1-yl)-2-((hexahydro-1H-pyrrolizin-7a-yl)methoxy)pyrido[4,3-d]pyrimidine] | 3.41 µM | 6.48 µM | 6.39 µM
14 | Fc1c(-c2cccc3cccc(F)c23)ncc2c(N3CCCOCC3)nc(OCC34CCCN3CCC4)nc12 [Example 42, 4-(8-fluoro-7-(8-fluoronaphthalen-1-yl)-2-((hexahydro-1H-pyrrolizin-7a-yl)methoxy)pyrido[4,3-d]pyrimidin-4-yl)-1,4-oxazepane] | 1.61 µM | 1.86 µM | 3.09 µM

Results, then the compound that gave them:

Row | IC50 [1] | IC50 [2] | IC50 [3] | SMILES
15 | 1.3 µM | 3.78 µM | 2.27 µM | Fc1c(-c2cccc3cccc(F)c23)ncc2c(N3CCCSCC3)nc(OCC34CCCN3CCC4)nc12 [Example 43, 4-(8-fluoro-7-(8-fluoronaphthalen-1-yl)-2-((hexahydro-1H-pyrrolizin-7a-yl)methoxy)pyrido[4,3-d]pyrimidin-4-yl)-1,4-thiazepane]
16 | 2.99 µM | 3.23 µM | 6.24 µM | OC1CCCCN(c2nc(OCC34CCCN3CCC4)nc3c(F)c(-c4cccc5cccc(F)c45)ncc23)C1 (centres unmarked) [Example 44, 1-(8-fluoro-7-(8-fluoronaphthalen-1-yl)-2-((hexahydro-1H-pyrrolizin-7a-yl)methoxy)pyrido[4,3-d]pyrimidin-4-yl)azepan-3-ol]
17 | 0.189 µM | 0.089 µM | 0.362 µM | O=C1NCC2(CCCN(c3nc(OCC45CCCN4CCC5)nc4c(F)c(-c5cccc6cccc(F)c56)ncc34)C2)N1 (centres unmarked) [Example 45, 7-(8-fluoro-7-(8-fluoronaphthalen-1-yl)-2-((hexahydro-1H-pyrrolizin-7a-yl)methoxy)pyrido[4,3-d]pyrimidin-4-yl)-1,3,7-triazaspiro[4.5]decan-2-one]
18 | 70.1 µM | 63.4 µM | ≥ 100 µM | OC1CCC2(CCCN(c3nc(OCC45CCCN4CCC5)nc4c(F)c(-c5cccc6cccc(F)c56)ncc34)C2)C1 (centres unmarked) [Example 47, 7-(8-fluoro-7-(8-fluoronaphthalen-1-yl)-2-((hexahydro-1H-pyrrolizin-7a-yl)methoxy)pyrido[4,3-d]pyrimidin-4-yl)-7-azaspiro[4.5]decan-2-ol]
19 | 27.9 µM | 70 µM | 18.9 µM | Fc1c(-c2cccc3cccc(F)c23)ncc2c(N3CCOCC3)nc(OCC34CCCN3CCC4)nc12 [Example 49, 4-(8-fluoro-7-(8-fluoronaphthalen-1-yl)-2-((tetrahydro-1H-pyrrolizin-7a(5H)-yl)methoxy)pyrido[4,3-d]pyrimidin-4-yl)morpholine]
20 | 22.6 µM | 39 µM | 22.7 µM | Fc1c(-c2cccc3cccc(F)c23)ncc2c(N3CCSCC3)nc(OCC34CCCN3CCC4)nc12 [Example 50, 4-(8-fluoro-7-(8-fluoronaphthalen-1-yl)-2-((hexahydro-1H-pyrrolizin-7a-yl)methoxy)pyrido[4,3-d]pyrimidin-4-yl)thiomorpholine]
21 | 0.025 µM | 0.235 µM | 0.039 µM | CCc1c(F)ccc2cc(O)cc(-c3ncc4c(NCC5(O)CCCCC5)nc(OC[C@@]56CCCN5C[C@H](F)C6)nc4c3F)c12 [Example 52, 5-ethyl-6-fluoro-4-(8-fluoro-2-(((2R,7aS)-2-fluorohexahydro-1H-pyrrolizin-7a-yl)methoxy)-4-(((1-hydroxycyclohexyl)methyl)amino)pyrido[4,3-d]pyrimidin-7-yl)naphthalen-2-ol]
22 | 49.4 µM | 66.4 µM | 90.2 µM | CC1(C)CCCN(c2nc(OCC34CCCN3CCC4)nc3c(F)c(-c4cccc5cccc(F)c45)ncc23)C1 [Example 53, 4-(3,3-dimethylpiperidin-1-yl)-8-fluoro-7-(8-fluoronaphthalen-1-yl)-2-((hexahydro-1H-pyrrolizin-7a-yl)methoxy)pyrido[4,3-d]pyrimidine]
23 | 0.321 µM | 0.162 µM | 0.528 µM | CCc1cccc2cccc(-c3ncc4c(N5CCCC(C)(O)C5)nc(OCC56CCCN5CCC6)nc4c3F)c12 (centres unmarked) [Example 54, 1-(7-(8-ethylnaphthalen-1-yl)-8-fluoro-2-((hexahydro-1H-pyrrolizin-7a-yl)methoxy)pyrido[4,3-d]pyrimidin-4-yl)-3-methylpiperidin-3-ol]
24 | 3.76 µM | 2.61 µM | 8.34 µM | CC1(O)CCCN(c2nc(OCC34CCCN3CCC4)nc3c(F)c(-c4cccc5cccc(C#N)c45)ncc23)C1 (centres unmarked) [Example 56, 8-(8-fluoro-2-((hexahydro-1H-pyrrolizin-7a-yl)methoxy)-4-(3-hydroxy-3-methylpiperidin-1-yl)pyrido[4,3-d]pyrimidin-7-yl)-1-naphthonitrile]
25 | 44.5 µM | 26.9 µM | 67.8 µM | CC1(O)CCCN(c2nc(OCC34CCCN3CCC4)nc3c(F)c(-c4cccc5cccnc45)ncc23)C1 (centres unmarked) [Example 66]
